In PMC6934184, “Selective DNA-PKcs inhibition extends the therapeutic index of localized radiotherapy and chemotherapy” (The Journal of Clinical Investigation, 2019) one finds inhibition data, which are given here for 1 molecule.

For the test, the target named is T1, TNIK (Homo sapiens, UniProt Q9UKE5).
T1 construct: purchased Thermo Fisher Scientific (Life Technologies) SelectScreen
Description: SelectScreen LanthaScreen. Format: binding. To be noted: read-out: % displacement. As to the method: The in vitro kinase selectivity of NU5455 was determined using the SelectScreen Broad Assay Panel (Thermo Fisher Scientific) involving activity and binding assays (Supplemental Table 1). […] Class IA PI3Ks were measured using the p85α subunit.
Kinase [ATP] % Assay Kinase [ATP] % Assay Kinase [ATP] % Assay Kinase [ATP] % Assay
DNA-PK Km app 98.3 Z LATS2 n/a 4.7 L KIT D820E n/a 1.3 L GSK3B (GSK3 beta) Km app -2.5 Z
PIK3C3 (hVPS34) Km app 85.9 A PRKCZ (PKC zeta) Km app 4.7 Z GRK1 n/a 1.3 L BMPR2 n/a -2.5 L
PIK3C2B (PI3K-C2 beta) 10 28.9 A FGFR1 Km app 4.7 Z BRSK2 n/a 1.2 L CDC42 BPB (MRCKB) Km app -2.5 Z
SNF1LK2 Km app 26.6 Z MINK1 Km app 4.6 Z NUAK1 (ARK5) Km app 1.2 A AMPK (A2/B2/G2) n/a -2.6 L
HCK Km app 18.0 Z CSF1R (FMS) Km app 4.3 Z CDK9/cyclin K n/a 1.0 L PRKG1 Km app -2.7 Z
NEK2 Km app 17.8 Z CSNK1G3 (CK1 gamma 3) Km app 4.2 Z NUAK2 n/a 1.0 L KIT T670E n/a -2.8 L
ALK Km app 17.3 Z STK32C (YANK3) n/a 4.2 L CDK2/cyclin O n/a 0.9 L ERBB4 (HER4) Km app -2.8 Z
FGFR3 K650M n/a 16.5 L STK22D (TSSK1) Km app 4.2 Z CAMKK2 (CaMKK beta) n/a 0.9 L PLK4 n/a -2.8 L
SIK3 n/a 16.1 L TAOK3 (JIK) n/a 4.2 L FGFR3 Km app 0.9 Z GRK7 Km app -3.0 Z
LYN A Km app 15.2 Z RPS6KA4 (MSK2) Km app 4.2 Z ULK2 n/a 0.9 L MAPKAPK2 Km app -3.1 Z
BMPR1B (ALK6) n/a 14.5 L PTK2B (FAK2) Km app 4.2 Z KIT D816V n/a 0.9 L FGFR4 Km app -3.1 Z
INSRR (IRR) Km app 14.1 Z CLK2 Km app 4.1 Z CAMK1 (CaMK1) 10 0.8 A CASK n/a -3.1 L
PLK2 Km app 14.1 Z STK24 (MST3) Km app 4.1 Z PTK6 (Brk) Km app 0.7 Z GRK5 Km app -3.2 Z
PRKACA (PKA) Km app 14.0 Z CAMK1D (CaMKI delta) Km app 4.1 Z CAMK2B (CaMKII beta) Km app 0.7 Z EGFR (ErbB1) T790M Km app -3.3 Z
EIF2AK2 (PKR) n/a 13.3 L INSR Km app 4.1 Z ACVR1 (ALK2) n/a 0.7 L PAK4 Km app -3.3 Z
PRKX Km app 12.5 Z IRAK1 Km app 4.0 A ABL1 H396P n/a 0.6 L DAPK3 (ZIPK) Km app -3.4 Z
FGR Km app 12.1 Z SRC N1 Km app 3.9 Z MERTK (cMER) A708S n/a 0.6 L RET M918T n/a -3.5 L
CLK1 Km app 11.7 Z SRPK2 Km app 3.9 Z MAPKAPK5 (PRAK) Km app 0.6 Z PRKCQ (PKC theta) Km app -3.7 Z
MARK3 Km app 11.4 Z RPS6KA6 (RSK4) Km app 3.8 Z AKT1 (PKB alpha) Km app 0.5 Z CAMKK1 (CAMKKA) n/a -3.8 L
PDGFRB (PDGFR beta) Km app 11.0 Z GRK6 Km app 3.7 Z NTRK3 (TRKC) Km app 0.4 Z FLT3 D835Y Km app -3.9 Z
PRKCN (PKD3) Km app 10.7 Z PKN1 (PRK1) Km app 3.6 Z ZAP70 Km app 0.3 Z ROCK2 Km app -4.1 Z
STK16 (PKL12) n/a 10.5 L MAP3K8 (COT) 100 3.5 Z CSNK1A1 (CK1 alpha 1) Km app 0.3 Z CHUK (IKK alpha) Km app -4.2 A
FES (FPS) Km app 10.4 Z FLT4 (VEGFR3) Km app 3.5 Z MYLK (MLCK) n/a 0.2 L AXL Km app -4.2 Z
ABL1 Km app 10.4 Z GRK4 Km app 3.5 Z MKNK2 (MNK2) n/a 0.2 L PIM2 Km app -4.3 Z
MUSK Km app 10.3 Z FRK (PTK5) Km app 3.4 Z AMPK (A1/B1/G3) n/a 0.2 L PAK1 Km app -4.4 Z
MAPK1 (ERK2) Km app 10.1 Z FYN A n/a 3.3 L MAP3K2 (MEKK2) n/a 0.1 L BMPR1A (ALK3) n/a -4.4 L
BRAF 100 9.9 Z CDK1/cyclin A2 n/a 3.3 L CDK8/cyclin C n/a 0.1 L STK4 (MST1) Km app -4.4 Z
IGF1R Km app 9.7 Z KIT V559D T670I n/a 3.1 L MARK2 Km app 0.1 Z PRKCH (PKC eta) Km app -4.6 Z
MAPK14 (p38 alpha) Km app 9.7 Z SPHK2 10 3.1 A ICK n/a 0.0 L SGKL (SGK3) Km app -4.6 Z
LCK Km app 9.6 Z FGFR3 G697C n/a 3.1 L FGFR2 Km app 0.0 Z PI4KB (PI4K beta) Km app -4.7 A
MAPK11 (p38 beta) Km app 9.5 Z RIPK2 n/a 3.1 L AKT2 (PKB beta) Km app 0.0 Z PRKCE (PKC epsilon) Km app -4.9 Z
SRC Km app 9.5 Z PAK6 Km app 3.0 Z EPHB2 Km app -0.1 Z PHKG1 Km app -5.0 Z
CHEK1 (CHK1) Km app 9.3 Z LYN B Km app 3.0 Z TGFBR2 n/a -0.1 L PDGFRA D842V Km app -5.0 Z
CAMK2D (CaMKII delta) Km app 9.3 Z DAPK2 n/a 2.9 L TEK (Tie2) Km app -0.1 Z PRKG2 (PKG2) Km app -5.1 Z
PLK1 Km app 9.2 Z EPHA4 Km app 2.9 Z AURKA (Aurora A) Km app -0.1 Z TYRO3 (RSE) Km app -5.1 Z
RET Y791F Km app 9.2 Z PIK3CG (p110 gamma) Km app 2.9 A KIT D816H n/a -0.2 L TAOK2 (TAO1) Km app -5.1 Z
FLT3 Km app 9.1 Z HIPK1 (Myak) Km app 2.8 Z KIT N822K n/a -0.2 L EPHB4 Km app -5.3 Z
MAPK10 (JNK3) 100 9.0 Z ADRBK2 (GRK3) Km app 2.8 Z PRKACG (PRKAC gamma) n/a -0.2 L AURKC (Aurora C) Km app -5.4 Z
CSNK2A2 (CK2 alpha 2) Km app 8.7 Z STK17B (DRAK2) n/a 2.7 L TEK (TIE2) Y1108F n/a -0.3 L JAK1 Km app -5.7 Z […]
Background: TR-FRET usually uses a lanthanide donor and a delayed reading to cut background.

T1 sequence (Q9UKE5 whole entry): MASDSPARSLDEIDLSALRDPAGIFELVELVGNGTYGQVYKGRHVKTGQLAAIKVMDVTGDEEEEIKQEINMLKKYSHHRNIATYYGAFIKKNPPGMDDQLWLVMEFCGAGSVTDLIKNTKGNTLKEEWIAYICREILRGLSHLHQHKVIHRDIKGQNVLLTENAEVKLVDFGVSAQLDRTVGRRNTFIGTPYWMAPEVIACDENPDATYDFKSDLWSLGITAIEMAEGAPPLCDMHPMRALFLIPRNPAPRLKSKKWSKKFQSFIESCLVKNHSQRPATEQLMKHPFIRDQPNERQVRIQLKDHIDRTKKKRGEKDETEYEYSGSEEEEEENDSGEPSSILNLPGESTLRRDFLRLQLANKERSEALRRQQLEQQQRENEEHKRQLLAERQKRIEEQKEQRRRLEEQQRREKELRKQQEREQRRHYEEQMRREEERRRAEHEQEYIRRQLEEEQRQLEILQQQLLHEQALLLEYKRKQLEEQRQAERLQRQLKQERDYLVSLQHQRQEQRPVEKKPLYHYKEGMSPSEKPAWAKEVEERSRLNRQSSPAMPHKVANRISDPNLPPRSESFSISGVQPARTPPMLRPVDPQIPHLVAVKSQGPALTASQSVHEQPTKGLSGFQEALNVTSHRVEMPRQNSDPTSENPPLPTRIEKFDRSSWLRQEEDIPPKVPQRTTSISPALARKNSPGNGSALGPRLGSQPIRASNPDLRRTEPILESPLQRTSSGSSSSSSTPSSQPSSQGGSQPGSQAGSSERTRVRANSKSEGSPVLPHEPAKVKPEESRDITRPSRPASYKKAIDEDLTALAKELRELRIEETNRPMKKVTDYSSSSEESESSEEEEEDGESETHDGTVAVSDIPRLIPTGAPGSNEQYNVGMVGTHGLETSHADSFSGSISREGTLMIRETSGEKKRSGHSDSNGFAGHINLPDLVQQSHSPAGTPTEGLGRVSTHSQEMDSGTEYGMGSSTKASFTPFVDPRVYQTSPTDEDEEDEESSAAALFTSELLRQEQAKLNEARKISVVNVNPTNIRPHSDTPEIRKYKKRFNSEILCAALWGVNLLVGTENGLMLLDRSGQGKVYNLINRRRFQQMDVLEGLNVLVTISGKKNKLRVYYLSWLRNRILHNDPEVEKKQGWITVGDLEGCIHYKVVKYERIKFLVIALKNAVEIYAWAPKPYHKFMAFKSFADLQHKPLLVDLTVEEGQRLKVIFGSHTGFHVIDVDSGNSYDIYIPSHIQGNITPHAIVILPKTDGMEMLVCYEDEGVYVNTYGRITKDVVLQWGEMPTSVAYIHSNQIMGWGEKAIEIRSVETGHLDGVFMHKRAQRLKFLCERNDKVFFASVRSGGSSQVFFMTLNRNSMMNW

As to `CN(C(=O)CN1CCOCC1)c1ccc2sc3c(-c4cccc5c(=O)cc(N6CC7CCC(C6)O7)oc45)cccc3c2c1` [NU5455], the inhibition at 1 µM amounted to 7.3%.
